Measured values taken from a melting point compilation (Tetko et al.; mined from patent text by program, amines drawn as free bases though some values may be those of a salt).

Point of comparison: `COc1cc(Cl)cnc1OCC#Cc1cc(Cl)ccn1`, melting point 129 °C. Against it:
- COC(=O)c1ccc(Cl)cc1NC(=O)Cc1cccnc1 — lower, 85 to 87 °C
- O=C(O)c1cccc(C(=O)c2ccc(C3CCCCC3)cc2)c1 — higher, 180 to 185 °C
- COC(=O)N1CC[C@@H]2[C@H]1CCC[C@@]2(O)C#Cc1cccc(C)c1 — lower, 110 to 112 °C
- Oc1ccc(OCCN2CCCCC2)cc1 — higher, 148 to 150 °C
- N#Cc1ccc(CN2C(=O)C3(COc4cc5c(cc43)OCO5)c3ccccc32)o1 (stereo not drawn) — higher, 167 to 169 °C
- O=[N+]([O-])C(Br)(Br)CCO — lower, 22 to 25 °C
- CCCCc1ncc(C=C2C(=O)Nc3ccc(Cl)cc32)n1Cc1ccc(C(=O)OC)cc1 — higher, 238 to 241 °C
- CN(c1cc(F)cc2cc(C3=NCCS3)[nH]c12)S(=O)(=O)c1cccs1 — higher, 188 to 189 °C
- CCN1C(=O)C(C)(C)C(=O)N(C)c2cc(OCCCn3cc(-c4ccc(OC)nc4)c(=O)c4ccccc43)ccc21 — higher, 159 to 161 °C
- O=C(Nc1ccc(OC(F)(F)F)cc1)c1cccc(Cl)c1[N+](=O)[O-] — higher, 171 to 172 °C
- CCc1cccc(Nc2nc(NCc3ccc(C)o3)nc(OCC(F)(F)F)n2)c1 — lower, 55 to 57 °C
- COc1ccc(S(=O)(=O)N(Cc2cccnc2)C(C(N)=O)C(C)C)cc1 (stereo not drawn) — lower, 45 to 53 °C
- O=C1OC(=O)C2CC(=C(F)F)CC12 (stereo not drawn) — higher, 140 to 145 °C
- OCc1cn(Cc2ccc(OCc3ccccc3)cc2)nc1-c1ccc(F)cc1 — lower, 112 to 113 °C
- Oc1nc2ccc3cn[nH]c3c2nc1O — higher, > 300 °C
- CCCc1nn(C)c2c(=O)[nH]c(-c3cc(C(=O)CBr)ccc3OCC)nc12 — higher, 159 to 160 °C
- CCC(CC)(COc1nn2ccnc2cc1C)CS(N)(=O)=O — higher, 210 to 211 °C
- BrCCOc1ccc(Cn2cccn2)cc1 — lower, 63 to 65 °C
- CCCC1(C(=O)NCCCCCO)c2ccccc2-c2ccccc21 — lower, 48 to 51 °C
- CCOC(=O)c1cn(C2CC2)c2c(F)c(N3CC(CNC(C)=O)C3)c(F)cc2c1=O — higher, 170 to 190 °C
- O=C(CNCc1ccc(OCc2ccccc2)cc1)NCCCOc1ccccc1 — lower, 55 to 56 °C
- C#Cc1ccc(NC(=O)CCCC(=O)O)cc1 — higher, 135 to 140 °C
- N#Cc1ccc(-c2ccc(OCC(CN3C(=O)c4ccccc4C3=O)N(O)C=O)cc2)cc1 (stereo not drawn) — higher, 199 to 202 °C
- Cc1cc(C)c(-n2nnc3c(-c4ccc(Cl)cc4Cl)nc(C)nc32)c(C)c1 — higher, 167 to 168 °C
- CC1C=CC(NC(=O)OC(C)(C)C)C([N+](=O)[O-])C1c1cc([N+](=O)[O-])ccc1Cl (stereo not drawn) — higher, 195 to 203 °C
- O=C(N[C@@H]1C(=O)N[C@@H]1C=Cc1ccccc1)OCc1ccccc1 — higher, 201 to 204 °C
- CC(C)(C)OC(=O)NC1C(=O)N(OCc2ccccc2)C12CCC2 (stereo not drawn) — higher, 156 to 157 °C
- CC(C)Oc1ccc(F)cc1OCCN1C(=O)c2ccccc2C1=O — lower, 68 °C
- Cc1cccc(NC(=O)CN2CCN(c3ccccc3C#N)CC2)c1 — higher, 168 to 170 °C
- CC(C)(C)c1nc(CN2C(=O)C3(COc4cc5c(cc43)OCO5)c3ccccc32)no1 (stereo not drawn) — higher, 183 to 185 °C
- Nc1c(Br)cc(OC(F)F)cc1[N+](=O)[O-] — lower, 60.5 to 61.5 °C
- COc1ccc(Sc2c([N+](=O)[O-])ccc(Cl)c2C(=O)O)cc1 — higher, 154 to 157 °C
- CC(=O)Nc1ccc(C(C)(C)C)cc1F — higher, 164 to 165 °C
- CC(=O)Nc1ccccc1NS(=O)(=O)c1cc(C(=O)O)cc(NCc2ccco2)c1Oc1ccccc1 — higher, 207 to 210 °C
- N#Cc1nn(-c2c(Cl)cc(C(F)(F)F)cc2Cl)c(Sc2ccccc2)c1SC(F)(F)F — lower, 84 to 86 °C
- COc1ccc(C2=NN(c3ccc(CC(=O)O)cc3)C(=O)[C@H]3CC=CC[C@@H]23)cc1OC (relative stereo) — higher, 162 °C
- CC(C)OC(=O)C1=C(COCCN2C(=O)c3ccccc3C2=O)Nc2c(C#N)cnn2C1c1cccc(F)c1F (stereo not drawn) — higher, 176 to 177 °C
